Test system: healthy male and female subjects
Experiment: Human Phase 1 single rising dose safety and tolerability of GC4403
Format: in vivo
Method: In a Phase 1 randomized, double-blind, placebo-controlled single rising dose safety, tolerability and pharmacokinetics study, 54 healthy male and female subjects were dosed from 2.2 to 25 mg of GC4403 administered intravenously over 30 minutes. Disposition of GC4403 is multi-exponential and follows linear pharmacokinetics with generally proportional increases in AUC and Cmax with increasing dose over the dose ranges studied. […] GC4403 is excreted unchanged in the urine and accounts for approximately 9 to 17% of the dose administered. No significant cardiovascular or vital sign effects, no significant physical examination abnormalities, and no significant abnormalities in routine clinical laboratory assessments were observed. Facial tingling, generalized tingling, paraesthesias and facial warmth were reported in a dose responsive manner, occurring at the 16.7 and 25 mg GC4403 doses.

[Cl][Mn-5]1234([Cl])[n+]5c6cccc5C[NH+]1[C@@H]1CCCC[C@H]1[NH+]2CC[NH+]3[C@@H]1CCCC[C@H]1[NH+]4C6 (stereo partly shown) [GC4403]
Any Event (treatment-emergent adverse event) (2.2 mg, 4 subjects dosed): 1 (25) N (%)
Conjunctivitis (treatment-emergent adverse event) (2.2 mg, 4 subjects dosed): 1 (25) N (%)
Cough (treatment-emergent adverse event) (2.2 mg, 4 subjects dosed): 0 (0) N (%)
Discolored Urine (treatment-emergent adverse event) (2.2 mg, 4 subjects dosed): 0 (0) N (%)
Drowsiness (treatment-emergent adverse event) (2.2 mg, 4 subjects dosed): 0 (0) N (%)
Facial Warmth (treatment-emergent adverse event) (2.2 mg, 4 subjects dosed): 0 (0) N (%)
Feeling Drunk (treatment-emergent adverse event) (2.2 mg, 4 subjects dosed): 0 (0) N (%)
Headache (treatment-emergent adverse event) (2.2 mg, 4 subjects dosed): 0 (0) N (%)
Inj. Site Pressure (treatment-emergent adverse event) (2.2 mg, 4 subjects dosed): 0 (0) N (%)
Inj. Site Reaction (treatment-emergent adverse event) (2.2 mg, 4 subjects dosed): 0 (0) N (%)
Injection Site Pain (treatment-emergent adverse event) (2.2 mg, 4 subjects dosed): 0 (0) N (%)
Lightheadedness (treatment-emergent adverse event) (2.2 mg, 4 subjects dosed): 0 (0) N (%)
Paresthesia (treatment-emergent adverse event) (2.2 mg, 4 subjects dosed): 0 (0) N (%)
Skin Tightness (treatment-emergent adverse event) (2.2 mg, 4 subjects dosed): 0 (0) N (%)
Taste Perversion (treatment-emergent adverse event) (2.2 mg, 4 subjects dosed): 0 (0) N (%)
Tingling (treatment-emergent adverse event) (2.2 mg, 4 subjects dosed): 0 (0) N (%)
Tingling Mouth (treatment-emergent adverse event) (2.2 mg, 4 subjects dosed): 0 (0) N (%)
Any Event (treatment-emergent adverse event) (3.3 mg, 4 subjects dosed): 2 (50) N (%)
Conjunctivitis (treatment-emergent adverse event) (3.3 mg, 4 subjects dosed): 0 (0) N (%)
Cough (treatment-emergent adverse event) (3.3 mg, 4 subjects dosed): 0 (0) N (%)
Discolored Urine (treatment-emergent adverse event) (3.3 mg, 4 subjects dosed): 0 (0) N (%)
Drowsiness (treatment-emergent adverse event) (3.3 mg, 4 subjects dosed): 0 (0) N (%)
Facial Warmth (treatment-emergent adverse event) (3.3 mg, 4 subjects dosed): 0 (0) N (%)
Feeling Drunk (treatment-emergent adverse event) (3.3 mg, 4 subjects dosed): 0 (0) N (%)
Headache (treatment-emergent adverse event) (3.3 mg, 4 subjects dosed): 0 (0) N (%)
Inj. Site Pressure (treatment-emergent adverse event) (3.3 mg, 4 subjects dosed): 0 (0) N (%)
Inj. Site Reaction (treatment-emergent adverse event) (3.3 mg, 4 subjects dosed): 1 (25) N (%)
Injection Site Pain (treatment-emergent adverse event) (3.3 mg, 4 subjects dosed): 0 (0) N (%)
Lightheadedness (treatment-emergent adverse event) (3.3 mg, 4 subjects dosed): 1 (25) N (%)
Paresthesia (treatment-emergent adverse event) (3.3 mg, 4 subjects dosed): 0 (0) N (%)
Skin Tightness (treatment-emergent adverse event) (3.3 mg, 4 subjects dosed): 0 (0) N (%)
Taste Perversion (treatment-emergent adverse event) (3.3 mg, 4 subjects dosed): 0 (0) N (%)
Tingling (treatment-emergent adverse event) (3.3 mg, 4 subjects dosed): 0 (0) N (%)
Tingling Mouth (treatment-emergent adverse event) (3.3 mg, 4 subjects dosed): 0 (0) N (%)
Any Event (treatment-emergent adverse event) (4.9 mg, 4 subjects dosed): 1 (25) N (%)
Conjunctivitis (treatment-emergent adverse event) (4.9 mg, 4 subjects dosed): 0 (0) N (%)
Cough (treatment-emergent adverse event) (4.9 mg, 4 subjects dosed): 0 (0) N (%)
Discolored Urine (treatment-emergent adverse event) (4.9 mg, 4 subjects dosed): 0 (0) N (%)
Drowsiness (treatment-emergent adverse event) (4.9 mg, 4 subjects dosed): 0 (0) N (%)
Facial Warmth (treatment-emergent adverse event) (4.9 mg, 4 subjects dosed): 0 (0) N (%)
Feeling Drunk (treatment-emergent adverse event) (4.9 mg, 4 subjects dosed): 0 (0) N (%)
Headache (treatment-emergent adverse event) (4.9 mg, 4 subjects dosed): 0 (0) N (%)
Inj. Site Pressure (treatment-emergent adverse event) (4.9 mg, 4 subjects dosed): 0 (0) N (%)
Inj. Site Reaction (treatment-emergent adverse event) (4.9 mg, 4 subjects dosed): 0 (0) N (%)
Injection Site Pain (treatment-emergent adverse event) (4.9 mg, 4 subjects dosed): 0 (0) N (%)
Lightheadedness (treatment-emergent adverse event) (4.9 mg, 4 subjects dosed): 0 (0) N (%)
Paresthesia (treatment-emergent adverse event) (4.9 mg, 4 subjects dosed): 0 (0) N (%)
Skin Tightness (treatment-emergent adverse event) (4.9 mg, 4 subjects dosed): 0 (0) N (%)
Taste Perversion (treatment-emergent adverse event) (4.9 mg, 4 subjects dosed): 0 (0) N (%)
Tingling (treatment-emergent adverse event) (4.9 mg, 4 subjects dosed): 0 (0) N (%)
Tingling Mouth (treatment-emergent adverse event) (4.9 mg, 4 subjects dosed): 0 (0) N (%)
Any Event (treatment-emergent adverse event) (7.4 mg, 4 subjects dosed): 3 (75) N (%)
Conjunctivitis (treatment-emergent adverse event) (7.4 mg, 4 subjects dosed): 0 (0) N (%)
Cough (treatment-emergent adverse event) (7.4 mg, 4 subjects dosed): 0 (0) N (%)
Discolored Urine (treatment-emergent adverse event) (7.4 mg, 4 subjects dosed): 0 (0) N (%)
Drowsiness (treatment-emergent adverse event) (7.4 mg, 4 subjects dosed): 0 (0) N (%)
Facial Warmth (treatment-emergent adverse event) (7.4 mg, 4 subjects dosed): 0 (0) N (%)
Feeling Drunk (treatment-emergent adverse event) (7.4 mg, 4 subjects dosed): 0 (0) N (%)
Headache (treatment-emergent adverse event) (7.4 mg, 4 subjects dosed): 1 (25) N (%)
Inj. Site Pressure (treatment-emergent adverse event) (7.4 mg, 4 subjects dosed): 1 (25) N (%)
Inj. Site Reaction (treatment-emergent adverse event) (7.4 mg, 4 subjects dosed): 0 (0) N (%)
Injection Site Pain (treatment-emergent adverse event) (7.4 mg, 4 subjects dosed): 0 (0) N (%)
Lightheadedness (treatment-emergent adverse event) (7.4 mg, 4 subjects dosed): 0 (0) N (%)
Paresthesia (treatment-emergent adverse event) (7.4 mg, 4 subjects dosed): 0 (0) N (%)
Skin Tightness (treatment-emergent adverse event) (7.4 mg, 4 subjects dosed): 0 (0) N (%)
Taste Perversion (treatment-emergent adverse event) (7.4 mg, 4 subjects dosed): 0 (0) N (%)
Tingling (treatment-emergent adverse event) (7.4 mg, 4 subjects dosed): 0 (0) N (%)
Tingling Mouth (treatment-emergent adverse event) (7.4 mg, 4 subjects dosed): 0 (0) N (%)
Any Event (treatment-emergent adverse event) (11.1 mg, 4 subjects dosed): 0 (0) N (%)
Conjunctivitis (treatment-emergent adverse event) (11.1 mg, 4 subjects dosed): 0 (0) N (%)
Cough (treatment-emergent adverse event) (11.1 mg, 4 subjects dosed): 0 (0) N (%)
Discolored Urine (treatment-emergent adverse event) (11.1 mg, 4 subjects dosed): 0 (0) N (%)
Drowsiness (treatment-emergent adverse event) (11.1 mg, 4 subjects dosed): 0 (0) N (%)
Facial Warmth (treatment-emergent adverse event) (11.1 mg, 4 subjects dosed): 0 (0) N (%)
Feeling Drunk (treatment-emergent adverse event) (11.1 mg, 4 subjects dosed): 0 (0) N (%)
Headache (treatment-emergent adverse event) (11.1 mg, 4 subjects dosed): 0 (0) N (%)
Inj. Site Pressure (treatment-emergent adverse event) (11.1 mg, 4 subjects dosed): 0 (0) N (%)
Inj. Site Reaction (treatment-emergent adverse event) (11.1 mg, 4 subjects dosed): 0 (0) N (%)
Injection Site Pain (treatment-emergent adverse event) (11.1 mg, 4 subjects dosed): 0 (0) N (%)
Lightheadedness (treatment-emergent adverse event) (11.1 mg, 4 subjects dosed): 0 (0) N (%)
Paresthesia (treatment-emergent adverse event) (11.1 mg, 4 subjects dosed): 0 (0) N (%)
Skin Tightness (treatment-emergent adverse event) (11.1 mg, 4 subjects dosed): 0 (0) N (%)
Taste Perversion (treatment-emergent adverse event) (11.1 mg, 4 subjects dosed): 0 (0) N (%)
Tingling (treatment-emergent adverse event) (11.1 mg, 4 subjects dosed): 0 (0) N (%)
Tingling Mouth (treatment-emergent adverse event) (11.1 mg, 4 subjects dosed): 0 (0) N (%)
Any Event (treatment-emergent adverse event) (16.7 mg, 4 subjects dosed): 2 (50) N (%)
Conjunctivitis (treatment-emergent adverse event) (16.7 mg, 4 subjects dosed): 0 (0) N (%)
Cough (treatment-emergent adverse event) (16.7 mg, 4 subjects dosed): 1 (25) N (%)
Discolored Urine (treatment-emergent adverse event) (16.7 mg, 4 subjects dosed): 0 (0) N (%)
Drowsiness (treatment-emergent adverse event) (16.7 mg, 4 subjects dosed): 0 (0) N (%)
Facial Warmth (treatment-emergent adverse event) (16.7 mg, 4 subjects dosed): 0 (0) N (%)
Feeling Drunk (treatment-emergent adverse event) (16.7 mg, 4 subjects dosed): 0 (0) N (%)
Headache (treatment-emergent adverse event) (16.7 mg, 4 subjects dosed): 1 (25) N (%)
Inj. Site Pressure (treatment-emergent adverse event) (16.7 mg, 4 subjects dosed): 0 (0) N (%)
Inj. Site Reaction (treatment-emergent adverse event) (16.7 mg, 4 subjects dosed): 0 (0) N (%)
Injection Site Pain (treatment-emergent adverse event) (16.7 mg, 4 subjects dosed): 1 (25) N (%)
Lightheadedness (treatment-emergent adverse event) (16.7 mg, 4 subjects dosed): 0 (0) N (%)
Paresthesia (treatment-emergent adverse event) (16.7 mg, 4 subjects dosed): 0 (0) N (%)
Skin Tightness (treatment-emergent adverse event) (16.7 mg, 4 subjects dosed): 0 (0) N (%)
Taste Perversion (treatment-emergent adverse event) (16.7 mg, 4 subjects dosed): 0 (0) N (%)
Tingling (treatment-emergent adverse event) (16.7 mg, 4 subjects dosed): 2 (50) N (%)
Tingling Mouth (treatment-emergent adverse event) (16.7 mg, 4 subjects dosed): 0 (0) N (%)
Any Event (treatment-emergent adverse event) (25.0 mg, 12 subjects dosed): 10 (87.3) N (%)
Conjunctivitis (treatment-emergent adverse event) (25.0 mg, 12 subjects dosed): 0 (0) N (%)
Cough (treatment-emergent adverse event) (25.0 mg, 12 subjects dosed): 0 (0) N (%)
Discolored Urine (treatment-emergent adverse event) (25.0 mg, 12 subjects dosed): 1 (8.3) N (%)
Drowsiness (treatment-emergent adverse event) (25.0 mg, 12 subjects dosed): 1 (8.3) N (%)
Facial Warmth (treatment-emergent adverse event) (25.0 mg, 12 subjects dosed): 1 (8.3) N (%)
Feeling Drunk (treatment-emergent adverse event) (25.0 mg, 12 subjects dosed): 1 (8.3) N (%)
Headache (treatment-emergent adverse event) (25.0 mg, 12 subjects dosed): 1 (8.3) N (%)
Inj. Site Pressure (treatment-emergent adverse event) (25.0 mg, 12 subjects dosed): 1 (8.3) N (%)
Inj. Site Reaction (treatment-emergent adverse event) (25.0 mg, 12 subjects dosed): 1 (8.3) N (%)
Injection Site Pain (treatment-emergent adverse event) (25.0 mg, 12 subjects dosed): 4 (33.3) N (%)
Lightheadedness (treatment-emergent adverse event) (25.0 mg, 12 subjects dosed): 2 (16.7) N (%)
Paresthesia (treatment-emergent adverse event) (25.0 mg, 12 subjects dosed): 1 (8.3) N (%)
Skin Tightness (treatment-emergent adverse event) (25.0 mg, 12 subjects dosed): 1 (8.3) N (%)
Taste Perversion (treatment-emergent adverse event) (25.0 mg, 12 subjects dosed): 1 (8.3) N (%)
Tingling (treatment-emergent adverse event) (25.0 mg, 12 subjects dosed): 3 (25.0) N (%)
Tingling Mouth (treatment-emergent adverse event) (25.0 mg, 12 subjects dosed): 5 (41.7) N (%)
maximum tolerated dose (MTD) (2.2 to 25 mg IV over 30 minutes): not established
tolerability of single doses up to 25 mg (healthy subjects): no severe adverse events

From patent publication US11826373B2, “Methods for treatment of diseases” (Galera Labs, LLC, priority 2011, dated 2023)
